Source: patent US7662767B2, “Polynucleotide intercalator interceptors and inhibitors” (Materials Evolution and Development USA, Inc., priority 2000, dated 2010)
Entries after “also recorded” stand apart in the source; their conditions may differ.

Assays:
[1] = test system: Drosophila salivary gland polytene chromosome; assay: Removal of DNA binding stains from polytene chromosome bands by xanthine wash; design: species or system Drosophila melagaster; conditions: for Re-staining following Xanthine Exposure / Staining before Xanthine Exposure: 1 mM stain, 30 minutes; for Degree of Stain Removal, Exposure to AM (100 mM) / Degree of Stain Removal, Exposure to CAF (100 mM): 15 minute wash, static
Method: In another implementation, giant polytene chromosomes were prepared by the squash technique from the salivary gland of Drosophila melagaster larva The salivary gland was placed on a microscope slide, squashed with a glass cover slide, fixed with acidic acid, rinsed with distilled water, and allowed to dry (kindly provided by Linda Chadwell, UTHSCSA-IBT). Three known DNA intercalators, ethidium bromide (98% purity, Aldrich Chemical Company, Milwaukee, Wis.), doxorubicin (98%, Sigma Chemnical Company, St. Louis, Mo.), and acridine orange plus the minor groove binding DNA stain Hoechst 33258 (98%, ACROS Chemical Company, NJ) were prepared in distilled water at a concentration of 1 mM (for chemical structures see FIG. 4-1, where acridine orange (3,6-bis [dimethylamino] acridine) is shown in Panel A, ethidium bromide is shown in Panel B, doxorubicin is shown in Panel C, Hoechst 33258 is shown in Panel D). The slides with prepared chromosomes were immersed in these stains for a period of 30 minutes, rinsed with distilled water, and dried at room temperature. Fluorescence microscopic analysis was conducted at λex 360 nm and photomicrographs were conducted on a Zeiss Model 63 Microscope with a xenon source fluorescent emitter. Photomicrographs were taken using Kodak Gold 35 mm ASA 1600 speed film noting the position of one individual chromosome on the slide. The stained slides were then subjected to 100 mM caffeine or 100 mM aminophylline under static conditions for a period of 15 minutes, rinsed with distilled water, then allowed to dry at room temperature. The presence of the same individual unstained chromosome in the field was confirmed by phase contrast microscopy. The chromosome was viewed again under fluorescence microscopy at […], and color recorded. Slides were re-stained by immersion in the 1 mM stain for a period of 30 minutes, rinsed with distilled water, and dried at room temperature, and the same individual chromosome was examined by fluorescence microscopy and the fluorescence color recorded.
FIG. 4-3 depicts three photomicrographs of the same Drosophila polytene chromosome: after staining with the DNA minor groove binder Hoechst 33258 dye (Panel A), after rinsing with CAF for 15 minutes (Panel B), and a phase contrast verification of the presence of the chromosome after the CAF rinse (Panel C). Table 4-4 summarizes the results from the experiments using caffeine (CAF) and aminophylline (AM) to remove the following DNA intercalators: doxorubicin, ethidium bromide, acridine orange, and the DNA minor groove binder Hoechst 33258 from their binding sites within polytene chromosomes. […] With all DNA intercalators, the staining of chromosome bands was intense before the xanthine rinses and was again intense following re-staining.

[2] = Optical absorbance titration of chlorophyllin with acridine orange; type: binding; conditions: AO:chlorophyllin ratio between 0.1 and 30
Excerpt: The invention is not limited to the use of xanthines as interceptor molecules. For example, chlorophyllin and porphyrins may be used as a binding agent to intercalator molecules. FIG. 2-3 shoes the optical absorbance spectra titrating cholorphyllin with increasing concentraitons of acridine orange. The selected spectra denoting important transitions within the titration series are denoted by the bold lines. At AO:chlorophyllin ratio between 0.1 and 30, prevalent peaks occur at λabs of 415 nm for chlorophyllin, 475 nm, and 492 nm. These later peaks correspond to the prevalent absorbance peaks found at concentrations of AO at 10 μM and higher concentrations. […] Thus, other compounds may be used as interceptors such as, but not limited to porphyrins, purines, pyrimidines, polynucleotides and uric acid.

[3] = Absorbance binding spectra of doxorubicin titrated with caffeine or chlorophyllin; conditions: 10 μM doxorubicin

| Compound | Re-staining following Xanthine Exposure [1] | Staining before Xanthine Exposure [1] | Degree of Stain Removal, Exposure to AM (100 mM) [1] | Degree of Stain Removal, Exposure to CAF (100 mM) [1] | Degree of Stain Removal, Exposure to AM (100 mM) ([1]; listed as doxorubicin) | complexation with acridine orange [2] | binding to doxorubicin [3] |
| --- | --- | --- | --- | --- | --- | --- | --- |
| COc1cccc2c1C(=O)c1c(O)c3c(c(O)c1C2=O)C[C@@](O)(C(=O)CO)C[C@@H]3O[C@H]1C[C@H](N)[C@H](O)[C@H](C)O1 [Doxorubicin, doxorubicin] | Complete | Banding | Moderate | completely removed; also recorded: Complete | only moderately removed |  |  |
| chlorophyllin |  |  |  |  |  | complexes with acridine orange | doxorubicin can be bound to chlorophyllin |
| CN1CCN(c2ccc3[nH]c(-c4ccc5[nH]c(-c6ccc(O)cc6)nc5c4)nc3c2)CC1 [Hoechst 33258] | Complete | Banding | apparently complete removal | apparently complete removal |  |  |  |
